# According to patent US20260199223A1, “USE OF AN AUREOBASIDIUM PULLULANS EXTRACT ALONE OR IN COMBINATION WITH A C-GLYCOSIDE AS A COSMETIC ACTIVE PRINCIPLE” (L'OREAL, priority 2022, published 2026):
# Tests used:
# Type in all cases: cell-based, human
# occludin = assay: Expression of occludin in NHEK, in situ immunofluorescence; details: 144 hours
# Description: (§1) The effects of the Aureobasidium pullulans extract and C-β-D-xylopyranoside-2-hydroxypropane (C-Xyloside, Pro-Xylane™) and a combination thereof were evaluated on normal human epidermal keratinocytes (NHEK) by analysing the expression of markers by in situ immunofluorescence labelling and image analysis: • expression of the differentiation markers: Transglutaminase K (TGK), filaggrin and involucrin, • expression of the tight junction proteins: claudin-1, zonula occludens-1 (ZO-1) and occludin,
# (§2) The compounds were tested at a non-cytotoxic concentration. • Normal human keratinocytes: NHEK, Bioalternatives reference K341 used at third passage. • Culture conditions: 37° C., 5% CO2 • Culture medium: Keratinocyte SFM (serum free medium) supplemented with Epidermal Growth Factor Pituitary extract • Test medium: Keratinocyte SFM (serum free medium)
# The keratinocytes were seeded in 96-well plates and cultured in culture medium for 24 hours. […]
# (§3) The labelling was quantified by measuring the fluorescence intensity and normalizing the fluorescence intensity relative to the total number of cells (Digital data integration with Developer Toolbox 1.5 software, GE Healthcare).
# [1] = system: zonula occludens-1 (ZO-1); assay: Expression of ZO-1 in NHEK, in situ immunofluorescence; details: 72 hours
# Description: as §1, §2
# (§4) The keratinocytes were seeded in 96-well plates and cultured in culture medium for 24 hours. The medium was then replaced with a test medium containing or not containing (control) the test compounds, the combination or the reference compound and the cells were incubated for 72 hours.
# (§5) The cells were rinsed with PBS solution, fixed and permeabilized. The cells were then labelled using a specific primary antibody (Table 13).
# (§6) Image acquisition (five photos/well) was performed using an INCell Analyzer™ 2200 (GE Healthcare, x20 objective).
# as §3
# claudin-1 [2] = assay: Expression of claudin-1 in NHEK, in situ immunofluorescence; details: 72 hours
# Description: as §1, §2, §4, §5, §6, §3
# involucrin [3] = assay: Expression of involucrin in NHEK, in situ immunofluorescence; details: 144 hours
# Description: as §1, §2
# as §4, with “incubated for 144 hours with a repeat treatment after 72 hours.” for “incubated for 72 hours.”
# as §5, §6, §3
# filaggrin [4] = assay: Expression of filaggrin in NHEK, in situ immunofluorescence; details: 72 hours
# Description: as §1, §2
# The keratinocytes were seeded in a 96-well plate and grown in culture medium for 192 hours with renewal of the culture medium after 24 and 96 hours. The medium was then replaced with a test medium containing or not containing (control) the test compounds, the combination or the reference compound and the cells were incubated for 72 hours.
# as §5, §6, §3
# Transglutaminase K (TGK) = assay: Expression of TGK in NHEK, in situ immunofluorescence; details: 72 hours
# Description: as §1, §2, §4, §5, §6, §3
# Collagen IV = assay: Expression of collagen IV in NHEK, in situ immunofluorescence; details: 72 hours
# Description: as §1
# The compounds were tested at a non-cytotoxic concentration. • Normal human keratinocytes: NHEK, Bioalternatives reference K341 used at third passage. • Culture conditions: 37° C., 5% CO2 • Culture medium: Keratinocyte SFM (serum free medium) supplemented with Epidermal Growth Factor Pituitary extract • Test medium: Keratinocyte SFM (serum free medium) […]
# as §3
# filaggrin [5] = assay: Filaggrin synthesis by immunohistofluorescence in reconstructed epidermis
# Description: (§7) Human keratinocytes were seeded onto inserts and then incubated at 37° C. in an atmosphere containing 5% CO2. Between the second and ninth day of incubation, the culture medium was changed every two days. […] On day 17, the reconstructed skins were then recovered and processed in different ways depending on the analysis test performed, namely: • for immunohistofluorescence analysis, the reconstructed skins were recovered, fixed, dehydrated and embedded in paraffin. 4 μm sections were then produced using a microtome (Leica). • for a QPCR test, the reconstructed skins were recovered and the RNAs were extracted in their entirety. The following primary antibodies were used for this test: • Mouse anti-filaggrin monoclonal antibody • Rabbit anti-loricrin polyclonal antibody • Mouse anti-claudin-1 monoclonal antibody The secondary antibodies used were as follows: • Alexa Fluor® 488-coupled rabbit anti-IgG antibody • Alexa Fluor® 488-coupled mouse anti-IgG antibody Visualization was performed using an IX 70 microscope (Olympus) coupled to an image analysis system (NIS-Elements software, Nikon). The content of the various markers synthesized was proportional to the intensity of the green fluorescence present on the reconstructed epidermis samples. Quantification was performed by means of an image analysis script in Python language. The results are expressed in arbitrary units (AU).
# loricrin = assay: Loricrin synthesis by immunohistofluorescence in reconstructed epidermis; details: day 9 to day 17, 250 μm
# Description: as §7
# claudin-1 [6] = assay: Claudin-1 synthesis by immunohistofluorescence in reconstructed epidermis
# Description: as §7
# ZO-1 = assay: Quantitative PCR analysis of ZO-1 expression in reconstructed epidermis; details: QPCR, 250 μm, control = 100
# Description: (§8) Human keratinocytes were seeded onto inserts and then incubated at 37° C. in an atmosphere containing 5% CO2. Between the second and ninth day of incubation, the culture medium was changed every two days. […] On day 17, the reconstructed skins were then recovered and processed in different ways depending on the analysis test performed, namely: • for immunohistofluorescence analysis, the reconstructed skins were recovered, fixed, dehydrated and embedded in paraffin. 4 μm sections were then produced using a microtome (Leica). • for a QPCR test, the reconstructed skins were recovered and the RNAs were extracted in their entirety. For this analysis, the RNAs were reverse-transcribed and the complementary DNAs obtained were analysed via a quantitative PCR technique. The mRNAs of the RPS18, GAPDH and GUSB proteins, the reference internal controls, were analysed in parallel with the mRNAs of ZO-1, CK10, involucrin and TGM1. Quantification of fluorescence incorporation (SYBR Green) was measured continuously using a LightCycler LC480 thermal cycler (Roche) and Ct analysis (relative quantification) was performed using the LC480 software (Roche).
# CK10 = assay: Quantitative PCR analysis of CK10 expression in reconstructed epidermis; details: QPCR, 250 μm, control = 100
# Description: as §8
# TGM1 = assay: Quantitative PCR analysis of TGM1 expression in reconstructed epidermis; details: QPCR, 250 μm, control = 100
# Description: as §8
# involucrin [7] = assay: Quantitative PCR analysis of involucrin expression in reconstructed epidermis; details: QPCR, 250 μm, control = 100
# Description: as §8
molecule,measurement,setting,value
CC(O)C[C@@H]1OC[C@@H](O)[C@H](O)[C@H]1O (stereo partly drawn) [C-β-D-xylopyranoside-2-hydroxypropane],"Expression of occludin, Integration fluo",occludin; 0.3%,78 % of control
same,"Expression of ZO-1, Integration fluo",[1]; 0.03%,111 % of control
same,"Expression of ZO-1, Integration fluo",[1]; 0.1%,124 % of control
same,"Expression of ZO-1, Integration fluo",[1]; 0.3%,127 % of control
same,"Expression of Claudin-1, Integration fluo",claudin-1 [2]; 0.03%,184 % of control
same,"Expression of Claudin-1, Integration fluo",claudin-1 [2]; 0.1%,204 % of control
same,"Expression of Involucrin, Integration fluo",involucrin [3]; 0.1%,109 % of control
same,"Expression of Involucrin, Integration fluo",involucrin [3]; 0.3%,110 % of control
same,"Expression of Filaggrin, Integration fluo",filaggrin [4]; 0.1%,114 % of control
same,"Expression of Filaggrin, Integration fluo",filaggrin [4]; 0.3%,127 % of control
same,"Expression of TGK, Integration fluo",Transglutaminase K (TGK); 0.03%,124 % of control
same,"Expression of TGK, Integration fluo",Transglutaminase K (TGK); 0.1%,158 % of control
same,"Expression of TGK, Integration fluo",Transglutaminase K (TGK); 0.3%,235 % of control
same,"Expression of Collagen IV, Integration fluo",Collagen IV; 0.3%,120 % of control
[Ca+2].[Cl-].[Cl-] [CaCl2],"Expression of occludin, Integration fluo",occludin; 1.5 mM,296 % of control
same,"Expression of ZO-1, Integration fluo",[1]; 1.5 mM,119 % of control
same,"Expression of Claudin-1, Integration fluo",claudin-1 [2]; 1.5 mM,200 % of control
same,"Expression of Involucrin, Integration fluo",involucrin [3]; 1.5 mM,126 % of control
same,"Expression of Filaggrin, Integration fluo",filaggrin [4]; 1.5 mM,159 % of control
same,"Expression of TGK, Integration fluo",Transglutaminase K (TGK); 1.5 mM,903 % of control
NC(=O)c1cccnc1 [Niacinamide],"Efficacy/control (%), filaggrin",filaggrin [5]; 250 μm,+42%
same,Synthesis of filaggrin,"filaggrin [5]; day 9 to day 17, 250 μm",941 × 10^3 AU
same,Synthesis of loricin,loricrin,214 × 10^3 AU
same,"Efficacy/control (%), claudin-1",claudin-1 [6]; 250 μm,+10%
same,Synthesis of claudin-1,"claudin-1 [6]; day 9 to day 17, 250 μm",266 × 10^3 AU
same,Expression of ZO-1 (%),ZO-1,91%
same,Expression of CK10 (%),CK10,100%
same,Expression of TGMI (%),TGM1,86%
same,Expression of involucrin (%),involucrin [7],78%
"TGF-β: positive control for expression of the marker Collagen IV, R&D Systems ref. 240-B","Expression of Collagen IV, Integration fluo",Collagen IV; 10 ng/ml,176 % of control
